The target in test [1] is T1, LK35.2-hPD-L1 cells / PE-labeled PD-1-Ig (Homo sapiens, UniProt Q9NZQ7).
T1 construct: expressed in transfected cells; host or cells: LK35.2 mouse B cell line
Nature of the test: LK35.2-hPD-L1 cell binding high-content screening assay. The format is cell-based. To be noted: cluster symbol, read-out: CBA IC50 cluster. The method, boiled down:
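Binding of PE-conjugated human PD-1-Ig (1 nM final) to human PD-L1 stably expressed on a mouse B-cell line (LK35.2) was measured by high-content imaging after washes. Compound and labeled PD-1-Ig were co-incubated 1 h at 37 °C with cells in RPMI/10% FCS.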

In test [2] the target is T2, Human PD-L1/PD-1 (Homo sapiens, UniProt Q9NZQ7).
T2 construct: made in house; host or cells: HEK293T
As to the kind of experiment: HTRF PD-1-Ig/PD-L1-His binding assay (human PD-L1). To be noted: cluster symbol; read-out: HTRF IC50 cluster. The method, boiled down: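 Soluble PD-1-Ig binding to PD-L1-His measured by HTRF in dPBS with 0.1% BSA and 0.05% Tween-20. Detection used europium cryptate anti-Ig antibody (1 nM final) and APC anti-His antibody (20 nM final) added on top of the binding reaction.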

Setting [3] is: cell binding assay, cell line not given.

Each structure is given as a SMILES string. Read-outs that look alike come from different tables or passages of the source. Starred links: 1 amine or outer side, 2 acyl side, 3 side chain; linkers in the order of their positions; H or OH if unused. Positions of bridges follow the written chain, without caps; N, C: chain ends. Non-standard residues stand in square brackets, D forms with d. Residues, ends and D or L forms follow the SMILES beside them. ξ: configuration not given here. X1 = C[C@@H]1C[C@H](C(=O)[*:2])N([*:1])C1; Bta = N[C@@H](Cc1csc2ccccc12)C(=O)O; Hyp = O=C(O)[C@@H]1C[C@@H](O)CN1; NMeF = CN[C@@H](Cc1ccccc1)C(=O)O; Cha = N[C@@H](CC1CCCCC1)C(=O)O; NMeNle = CCCC[C@H](NC)C(=O)O; NMeM = CN[C@@H](CCSC)C(=O)O; NMeA = CN[C@@H](C)C(=O)O; Dab = NCC[C@H](N)C(=O)O; Dap = NC[C@H](N)C(=O)O; ξC = NC(CS)C(=O)O; Sar = CNCC(=O)O

T1 sequence (Q9NZQ7 19-290): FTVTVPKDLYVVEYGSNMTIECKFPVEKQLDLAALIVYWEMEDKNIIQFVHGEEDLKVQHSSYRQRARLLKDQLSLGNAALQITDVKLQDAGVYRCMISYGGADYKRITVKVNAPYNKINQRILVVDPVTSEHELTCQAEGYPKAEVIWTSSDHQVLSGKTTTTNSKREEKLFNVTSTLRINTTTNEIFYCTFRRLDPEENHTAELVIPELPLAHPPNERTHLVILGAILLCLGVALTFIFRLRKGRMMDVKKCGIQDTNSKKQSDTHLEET
T2 sequence (Q9NZQ7 with tags, fused parts or gaps): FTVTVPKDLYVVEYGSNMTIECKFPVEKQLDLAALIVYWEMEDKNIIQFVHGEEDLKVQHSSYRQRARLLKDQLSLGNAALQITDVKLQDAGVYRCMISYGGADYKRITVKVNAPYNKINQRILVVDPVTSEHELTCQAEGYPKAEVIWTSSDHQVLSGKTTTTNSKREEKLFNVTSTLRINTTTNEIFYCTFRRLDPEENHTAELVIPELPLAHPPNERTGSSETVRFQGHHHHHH

For `CCCC[C@H]1C(=O)N(C)[C@@H](CCSC)C(=O)N[C@@H](C)C(=O)NC(C(=O)NCC(N)=O)CSCC(=O)N[C@@H](Cc2ccc(O)cc2)C(=O)N(C)[C@@H](C)C(=O)N[C@@H](CC(N)=O)C(=O)N2CCC[C@H]2C(=O)N[C@@H](CN)C(=O)N[C@@H](CC(C)C)C(=O)N2CCC[C@H]2C(=O)N[C@@H](Cc2c[nH]c3ccccc23)C(=O)N[C@@H](CO)C(=O)N[C@@H](Cc2csc3ccccc23)C(=O)N1C` (some centres unmarked) [Example 9086] ({CH2CO}-Y[NMeA]NP[Dap]LPWS[Bta][NMeNle][NMeM]A[ξC]G-NH2; thioether N-14), the IC50 in test [1] (setting [3]) lay in the range of 0.158 to 4.71 nM; in test [2], 0.385 to 6.74 nM.
Turning to `CCCC[C@H]1C(=O)N(C)[C@@H](CCCC)C(=O)N[C@@H](CCCNC(=N)N)C(=O)N[C@H](C(=O)NCC(N)=O)CSCC(=O)N[C@@H](Cc2ccccc2)C(=O)N(C)[C@@H](C)C(=O)N[C@@H](CC(N)=O)C(=O)N2CCC[C@H]2C(=O)N[C@@H](Cc2c[nH]cn2)C(=O)N[C@@H](CC(C)C)C(=O)N(C)CC(=O)N[C@@H](Cc2c[nH]c3ccccc23)C(=O)N[C@@H](CO)C(=O)N[C@@H](Cc2c[nH]cn2)C(=O)N1C` [Example 1004] ({CH2CO}-F[NMeA]NPHL[Sar]WSH[NMeNle][NMeNle]RCG-NH2; thioether N-14), the results for the IC50 in test [1] (cell line of CBA not given (LK35.2-hPD-L1 or 293T-hPD-L1)) and in test [2] were over 74.3 nM and over 30.5 nM, respectively.
As to `CCCC[C@H]1C(=O)N(C)[C@@H](C)C(=O)N[C@@H](CCCNC(=N)N)C(=O)NC(C(=O)NCC(N)=O)CSCC(=O)N[C@@H](Cc2ccc(O)cc2)C(=O)N(C)[C@@H](C)C(=O)N[C@@H](CC(N)=O)C(=O)N2CCC[C@H]2C(=O)N[C@@H](CO)C(=O)N[C@@H](CC(C)C)C(=O)N2CCC[C@H]2C(=O)N[C@@H](Cc2c[nH]c3ccccc23)C(=O)N[C@@H](CO)C(=O)N[C@@H](Cc2csc3ccccc23)C(=O)N1C` (some centres unmarked) [Example 9111] ({CH2CO}-Y[NMeA]NPSLPWS[Bta][NMeNle][NMeA]R[ξC]G-NH2; thioether N-14), the IC50 is 4.78 to 72.9 nM in test [1] (setting [3]) and 0.385 to 6.74 nM in test [2].
For `CCCC[C@H]1C(=O)N(C)CC(=O)N[C@@H](CC(=O)O)C(=O)N[C@@H](C(C)C)C(=O)N(C)[C@@H](Cc2ccccc2)C(=O)N[C@@H](Cc2ccc(O)cc2)C(=O)N2C[C@H](C)C[C@@H]2C(=O)N[C@@H](Cc2c[nH]c3ccccc23)C(=O)N[C@@H](Cc2ccc(O)cc2)C(=O)N[C@@H](CC(C)C)C(=O)N[C@H](C(=O)NCC(N)=O)CSCC(=O)N[C@@H](Cc2ccccc2)C(=O)N(C)[C@@H](Cc2ccccc2)C(=O)N1C` [Example 3578] ({CH2CO}-F[NMeF][NMeNle][Sar]DV[NMeF]Y[X1]WYLCG-NH2; thioether N-13), in that order: 0.158 to 4.71 nM and 0.385 to 6.74 nM.
For `CCCC[C@H]1C(=O)N(C)[C@@H](CCCC)C(=O)N[C@@H](CCC(=O)O)C(=O)N[C@H](C(=O)NCC(N)=O)CSCC(=O)N[C@@H](Cc2ccc(O)cc2)C(=O)N(C)[C@@H](C)C(=O)N[C@@H](CCN)C(=O)N2CCC[C@H]2C(=O)N[C@@H](Cc2c[nH]cn2)C(=O)N[C@@H](CCC(=O)O)C(=O)N2C[C@H](O)C[C@H]2C(=O)N[C@@H](Cc2c[nH]c3ccccc23)C(=O)N[C@@H](CO)C(=O)N[C@@H](Cc2c[nH]c3ccccc23)C(=O)N1C` [Example 5111] ({CH2CO}-Y[NMeA][Dab]PHE[Hyp]WSW[NMeNle][NMeNle]ECG-NH2; thioether N-14), in that order: 4.78 to 72.9 nM and 6.76 to 30.3 nM.
For `CCCC[C@H]1C(=O)N(C)[C@@H](CCCC)C(=O)N[C@@H](CC(C)C)C(=O)N[C@H](C(=O)NCC(N)=O)CSCC(=O)N[C@@H](Cc2ccc(O)cc2)C(=O)N(C)[C@@H](C)C(=O)N[C@@H](CC(N)=O)C(=O)N2CCC[C@H]2C(=O)N[C@@H](CN)C(=O)N[C@@H](CC2CCCCC2)C(=O)N2C[C@H](O)C[C@H]2C(=O)N[C@@H](Cc2c[nH]c3ccccc23)C(=O)N[C@@H](CO)C(=O)N[C@@H](Cc2c[nH]c3ccccc23)C(=O)N1C` [Example 5082] ({CH2CO}-Y[NMeA]NP[Dap][Cha][Hyp]WSW[NMeNle][NMeNle]LCG-NH2; thioether N-14), in that order: 0.158 to 4.71 nM and 0.385 to 6.74 nM.
Consider `CCCC[C@H]1C(=O)N(C)[C@@H](CCCC)C(=O)N[C@@H](CCN)C(=O)N[C@H](C(=O)NCC(N)=O)CSCC(=O)N[C@@H](Cc2ccccc2)C(=O)N(C)[C@@H](C)C(=O)N[C@@H](CC(N)=O)C(=O)N2CCC[C@H]2C(=O)N[C@@H](Cc2cnc[nH]2)C(=O)N[C@@H](CC(C)C)C(=O)N(C)CC(=O)N[C@@H](Cc2c[nH]c3ccccc23)C(=O)N[C@@H](CO)C(=O)N[C@@H](Cc2c[nH]c3ccccc23)C(=O)N1C` [Example 5006] ({CH2CO}-F[NMeA]NPHL[Sar]WSW[NMeNle][NMeNle][Dab]CG-NH2; thioether N-14), for which the IC50 in test [1] (setting [3]) was 4.78 to 72.9 nM; in test [2], 0.385 to 6.74 nM.

Source of the values: patent US9850283B2, “Macrocyclic inhibitors of the PD-1/PD-L1 and CD80(B7-1)/PD-L1 protein/protein interactions” (BRISTOL-MYERS SQUIBB COMPANY, priority 2013, dated 2017).
